Patent US5942511A, “Allylthiopyridazine derivatives and process for preparing the same” (Kwon; Soon Kyoung, priority 1998, dated 1999)
“And” between values parts separate entries of the source, which are not always exact repeats. Identical values can stand only once.

Tests used:
[1] = tested on: hepatocyte necrosis; test: Effect of inhibiting hepatic disorder induced by acetaminophen (APAP): hepatocyte necrosis; format: in vivo, male ICR mice; conditions: APAP model, 50 mg/kg per day oral, 3 days
Experimental: In the present invention, the inhibiting effect of the compound of formula (I) on hepatic disorder, induced by carbon tetrachloride and acetaminophene, was determined after oral administration of the novel compound according to the present invention to mouse as the experimental animal for 3 days. The degree of liver damage in respective experimental animal was determined by measuring ALT and LDH levels in blood [see, Biol. Pharm. Bull., 20, 4, 381-385, 1997; Toxicology and Applied Pharmacology, 95, 1-11, 1988], and further by removing the liver, staining (×100) the liver with hematoxylin and eosin and then observing with microscope to examine the degree of hepatocyte necrosis.
In addition, liver was removed from the test animals, stained (×100) with hematoxylin and eosin and then observed by microscope. The degree of hepatocyte necrosis was evaluated according to the following 5 grades: 0 no lesion, 1 mild lesion, 2 moderate lesion, 3 severe lesion and 4 diffused lesion.
The liver protective effect of the compound according to the present invention was examined according to the known method [see, Wang et al., Toxicology and applied Pharmacology, 136, 146-154, 1996] as specifically described below.
The compound according to the present invention was suspended in corn oil and the resulting suspension was administered in an amount of 1.0 ml/kg. Each group was composed of 3 to 10 male ICR mice (5-6 weeks) and the test compound was orally administered for 3 days in the dose of 50 mg/kg per day. After 2 hours from the last administration of the test compound, acetaminophen was orally administered in an amount of 0.5 g/kg. In this experiment, silymarin was used as the comparative compound. After 22 hours from the administration of acetaminphen, blood was taken from the individual test animal and ALT and LDH values in serum were determined. The results as obtained are described in the following Tables 4 and 5 (in which ALT and LDH values are represented by mean±SE). In addition, liver was removed from the test animals and then observed according to the same manner as Experiment 3 to evaluate the degree of hepatocyte necrosis.

[2] = tested on: radiation damage; test: Protective effect against radiation damage: survival of mouse; format: in vivo, male ICR mouse; conditions: 100 mg/kg per day, 2 days
From the text: Further, the present inventors have confirmed the protective effect of allylthiopyridazine derivative according to the present invention against radiation by administering the active compound to mouse, irradiating the radiation of 8 or 9Gy and, after a certain period, measuring the survival rate of mouse. For example, the survival rate during 30 days of 8Gy radiation can be seen from FIG. 3, and the specific experimental result is described in the following Table 7. Specifically, when 8Gy radiation is used, the survival rate during 30 days in the groups which only radiation was used was merely 48%, whereas the survival rates during 30 days in the groups to which the compounds of Examples 4 and 8 are previously administered were 76% and 70%, respectively. Therefore, it can be noted that the protective effect of the compound according to the present invention against radiation is proven to be a very significant novel discovery.
Protective effect against radiation damage
In order to confirm the protective effect of the compound of the present invention against radiation damage, the following test was conducted.
Male ICR mouse was bred in a chamber to which sterile atmosphere is supplied, at inner temperature 20-23° C. and relative humidity 50% with sufficient water and feed. When the weight of mouse reached 20-25 g, the compound of the present invention was suspended in corn oil and then administered for 2 days in the dose of 100 mg/kg (1 ml/kg) per day. After 3 hours from the last administration of the test compound, 8 or 9 Gy radiation was irradiated to mouse. Specifically, mouse was introduced into a box made of acryl which limited his movement, and then radiation produced from ^60 Co radioactive material was irradiated to whole body at the irradiating rate of 115.8 cGy/min. The dimension of acryl box was 31×31 cm^2, which is the same as the irradiating area of radiation. After 7 days of irradiation of γ-ray, mouse was sacrificed to conduct the histopathologic observation. The result of examining the survival rate during 30 days of irradiation of 8 Gy radiation is shown in FIG. 3, and the result of determining the survival rate after a certain period (10, 13 or 30 days) from irradiation of 8 or 9 Gy radiation is described in the following Table 7.

C=CCSc1ccc(OC)nn1 [Example 4, 3-methoxy-6-allylthiopyridazine]
Degree of necrosis 0: number of animals ([1]; grade 0 no lesion): 5
Degree of necrosis 1: number of animals ([1]; grade 1 mild lesion): 4
Degree of necrosis 2: number of animals ([1]; grade 2 moderate lesion): 1
Degree of necrosis 3: number of animals ([1]; grade 3 severe lesion): 0
Degree of necrosis 4: number of animals ([1]; grade 4 diffused lesion): 0
survival number ([2]; 10 days of 9 Gy radiation): 16/23
survival rate ([2]; 10 days of 9 Gy radiation): 70%
survival number ([2]; 13 days of 9 Gy radiation): 3/23
survival rate ([2]; 13 days of 9 Gy radiation): 13%
survival number ([2]; 30 days of 8 Gy radiation): 18/23
survival rate ([2]; 30 days of 8 Gy radiation, 100 mg/kg/day): 78% and 76%
